Converted amounts (≈) assume the structure as drawn.
Legend:
[1] = system: Herpes virus of the type I (HSV-I/Leningrad/248/88); assay: Effect on Herpes virus, cytopathogenic action on Vero cells; format: cell-based, Herpes Simplex virus; settings: compound 100 μg/ml
Description: An antiviral activity was determined with respect to Herpes virus of the type I (HSV-I/Leningrad/248/88) by means of commonly accepted method. Viruses were grown on a continuous culture of Vero cells that have been received from the Bank of Cell Cultures of the Institute of Cytology of the Russian Academy of Science.
A virus in a final concentration of […] and the claimed compounds dissolved in DMSO in final concentrations of 100, 10 and 1 mg/l were added to cells that were grown on the RPMI-1640 medium with 10% fetal calf serum and placed into wells of the 96-well plate. 5 separate wells were used for each of tested concentrations of an agent. The plate was incubated during 60 minutes at 38° C. in a CO2-incubator. After the incubation, the virus was removed and then a fresh medium containing claimed compounds in used concentrations was again introduced.
Results were evaluated basing on presence of cytopathogenic action on the cells after 36 hours of incubation at 38° C. in the CO2-incubator.
The next controls were used in the experiment: • 1. Control of cell culture (capability to grow properly) • 2. Control of the virus (evaluation of capability for reproduction) • 3. Control of an antiviral activity of an antiviral drug Acyclovir • 4. Control of compounds (toxicity of compounds) • 5. Control of a solvent (DMSO) for toxicity.
To estimate a cytopathic action of the virus, a quantity of the unchanged cells was calculated in 100 visual fields formed by a special net of an eyepiece of the inverted microscope.

[2] = system: C.trachomatis D323; assay: Action on Chlamydia trachomatis in cell culture; format: cell-based; settings: 100 mg/l
Description: The antimicrobial activity of the claimed compounds was studied relative to C.trachomatis […], which is a standard strain from the collection of the chair of microbiology of St. Petersburg State Pavlov Medical University. […] Cell cultures McCoy and L929 obtained from the Institute of Cytology of RAS were used in this work. Cells were grown in flasks made of neutral glass in the medium RPMI-1640 with the addition of 10% of fetal calf serum. The test was performed in glass (non-toxic) flat-bottom flasks with cover glasses. The cells were introduced into the medium in the final concentration of […]. […] Simultaneously, tested compounds in a final concentration of 100 mg/l were added to the cells. The sample was centrifuged at 2400 G during 60 minutes at room temperature and incubated at 37° C. for 2 hours. […] The samples were doubled using the medium without cycloheximide so as to exclude its effect on the investigated compounds. The samples were incubated in a CO2-incubator for 48 hours. […] The effect of the action of substance was determined by analysis of the monolayer state and number of cells with CPI when compared with the control (cell culture infected with C.trachomatis […]); in doing so, the number of unchanged cells, that were counted in 100 visual fields obtained using the special net of the microscope eyepiece, was taken into consideration. […] Control of cell culture: morphology of cells and state of monolayer correspond to the given type of the cells; control of chlamydia growth in the cell culture: presence of CPI in the monolayer; control of action of standard antimicrobial agent: reduction of number of CPI in the monolayer as compared to the previous control; control of toxicity of the claimed compounds: toxicity is absent; control of action of solvents: toxic action on cells is absent.

[3] = system: Human's platelet aggregation; assay: Antiaggregational properties, ADP-induced platelet aggregation; format: cell-based; settings: 100 μg/ml, ADP […], platelet-enriched human plasma
Text: Human's platelet aggregation was investigated in plasma of healthy 50±3 years donors that was enriched by thrombocytes, by means of aggregometer FRM-1. […] Magnitude of a maximum non-reversible platelet aggregation in the control samples (solvent) was adopted as 100%, and that in tested samples was counted as the percentage compared to the control.

[4] = Psychodepressive activity, behavioral score; format: in vivo, mice; settings: per oral 300 mg/kg, one hour after dosing; total 60, less than 40 significant
Description: Each parameter scores 2 points for an each mouse that had unchanged behavior. The total point sum was 60 (2×10×3 mice). Reducing score to less than 40 one hour after dosing with a substance per oral (300 mg/kg) denoted significant behavioral depression. Haloperidol was utilized as a reference agent.

[5] = Hypoglycemic activity after glucose load; format: in vivo, mice; settings: 100 mg/kg perorally, glucose 1000 mg/kg s.c.
Description: Test substance (100 mg/kg) was perorally administrated to fasted mice, and, immediately after that, solution of glucose (1000 mg/kg) was administrated subcutaneously. Glucose content in blood was determined in a hour by the orthotoluidine method. Reducing of glucose level by more than 20% relative to control animals indicated hypoglycemic properties. Glibenclamide (I mg/kg) was utilized as a reference agent.

[6] = Antiulcerous action, water immersion stress with immobilization; format: in vivo, rats; settings: 20 mg/kg perorally
Description: Antiulcerous activity of substances was tested on a model of experimental water immersion stress with immobilization. […] After that, gastric mucous membrane was investigated, number and sizes of ulcers were counted, ulceration index was determined (an average sum of ulcer lengths per one animal in a group).

[7] = Hepatoprotective activity, CCl4 liver damage (AlAT); format: in vivo, rats
Description: CCl4 dissolved in 50% olive oil (1 ml/kg) was subcutaneously administrated to rats. Test substances were administrated perorally in a dose of 20 mg/kg 30 minutes before and 7 hours after the CCL4 administration. The activity of alanine-aminotranspherase (AlAT), which is a marker enzyme of liver parenchyma damage, was assessed twenty-four hours later. Reducing of enzyme amount by more than 30% relative to the control group was considered as evidence of hepatoprotective properties of the substance.
Silymarin in a dose of 100 mg/kg was used as a reference agent.

[8] = Antioxidant action, riboflavine chemiluminescence; format: biochemical; settings: solvent water, phosphate buffer pH 9.1
Text: To assess a general antioxidant activity the method of riboflavine chemiluminescence was used. The test substance was introduced into a system consisted of phosphate buffer (pH 9.1), solution of riboflavine, and solution of bivalent iron sulfate. Chemiluminescence was initiated by 0.1% solution of hydrogen peroxide and registered by means of luminometer. […] Ascorbic acid was used as a reference agent.

[9] = system: cholesterol synthesis by human's fibroblasts; assay: Inhibition of cholesterol synthesis in human's fibroblasts; format: cell-based; settings: Homo sapiens, Fibroblast; 400 ng/ml, [2-14C] acetate incorporation, 4 hours
Description: Influence of the substance (400 ng/ml) on cholesterol synthesis by human's fibroblasts was investigated. […] The spots corresponding to cholesterol were removed from a plate to a vial and then were coated with scintillation liquid; after that radioactivity was measured expressed as pulse/min/mg of cell protein. Lovastatin taken in the same concentration as the tested substance was utilized as a reference agent.

| Compound | Quantity of the unchanged cells (number of cells in 100 visual fields) ([1]; Vero cells, 36 hours, cell control 10000) | percentage of protection of cells from virus ([1]; compared to the control of cell culture) | percentage of cell protection from infection [2] | Number of unchanged cells ([2]; 48 hours, counted in 100 visual fields, cell control 8.000, infected cells 6.000) | % of inhibition of platelet aggregation [3] [%] | Point number (behavioral depression) [4] | % change of glucose relative to glucose control [5] [%] | Glucose in blood ([5]; after one hour, glucose control 8.26 ± 0.50) [mmol/L] | % of animals with ulcers ([6]; rats, 4 hours stress, control 100) [%] | % of reducing number of ulcers ([6]; versus control) [%] | % of reducing ulceration index ([6]; versus control) [%] | Number of lesions ([6]; control 8.3 ± 2.5) | ulceration index ([6]; control 10.5 ± 5.7) | AlAT ([7]; 20 mg/kg perorally 30 minutes before and 7 hours after CCl4, 24 hours, CCl4 control 0.83 ± 0.21, intact 0.27 ± 0.04) [mmol/L/h] | % of reducing AlAT ([7]; 20 mg/kg perorally, relative to CCl4 control) [%] | IC50, suppressing chemiluminescence by 50% [8] [µg/mL] | inhibition at 0.4 µg/mL [9] [%] |
| --- | --- | --- | --- | --- | --- | --- | --- | --- | --- | --- | --- | --- | --- | --- | --- | --- | --- |
| O=C1NC(=O)N(c2ccc(F)cc2)C(=O)C1=NO [XXVII] | 6500 | (65%) | (65%) | 7.300 | 24.3 ± 4.8 | 31 | −12 | 7.26 ± 0.41 | 67 | −79 | −88 | 1.7 ± 1.3 | 1.3 ± 1.0 | 0.42 ± 0.08 | −49 | 13.00 (≈ 51.8 µM) |  |
| CC[C@H](C)C(=O)O[C@H]1C[C@@H](C)C=C2C=C[C@H](C)[C@H](CC[C@@H]3C[C@@H](O)CC(=O)O3)[C@H]21 [Lovastatin, reference compound] |  |  |  |  |  |  |  |  |  |  |  |  |  |  |  |  | 76.4 |
